“And” between values parts separate entries of the source, which are not always exact repeats. Identical values can stand only once.
Tests used:
MSSA in the nares [1] = assay: Nasal colonization human study Part One, quantitative swab cultures, MSSA; assay type: in vivo, S. aureus; conditions: for s. aureus Average: laser w/ drug arm, one line per patient
Procedure: (§1) This investigational protocol was an open-label study of subjects who are colonized with MRSA in the nares (nostril). The study was done in two parts.
(§2) In this human study, three arms were produced. […] This was done on day 1 and again on day three; and Arm #3: ⅓ of the subjects were treated with the laser and then a topical antibiotic three times a day for five days. Prior to enrollment in this study, prospective subjects met all of the following criteria: age≧18 years and ≦70 years of age; previous positive MRSA culture; negative urine pregnancy test or post-menopausal for one year; willing to comply with study requirements, including return visits and self-application of topical antibiotics; and willing to provide informed consent to participate. Prospective subjects were excluded from this study if any of the following criteria were met: pregnancy; patients who are severely immunocompromised (such as may occur in AIDS, renal transplant regimens, immunosuppressed states consequent to malignancy or agents used in rendering oncologic care, or who suffer from end stage renal disease); diabetic patients; allergy to antimicrobials being used in the study (group 3).
(§3) All participants underwent an initial quantitative assessment for nasal carriage of S. aureus, during their first visit. Each participant had the anterior nares (each nostril) sampled for culture with a circular movement (three rotations on each side) of a sterile wood applicator plain Rayon® tipped swab in each nostril and placed in a labled tube. 2 ml of room temp phosphate buffered saline was placed in the tube after the removal of the swab (to completely cover the swab in the tube). Each swab was then placed back in the tube and the tube was then vortexed for 15 seconds to disperse isolates of MRSA and/or MSSA into the PBS solution. Aliquots of PBS from the tube were plated in the following manner: 100 μl from each tube was lawn plated in triplicate (3×) on selective Chromogenic MRSA And MSSA agar. Plates were placed in incubator within 30 minutes of the plating procedure, and colonies were counted manually, and recorded 18 hrs after plating.
(§4) On day one of the study, all subjects underwent this exact procedure in arms 1 and 2 of the study two minutes before the laser procedure. They again were sampled in the same manner 2 minutes after the laser procedure. In the third arm of the study, they were swabbed two minutes before the procedure and the first antibiotic administration was completed after the laser therapy. The post/laser swab sample was taken for this arm 20 min later.
(§5) On day three of the study, all subjects from arms one two and three underwent the exact same procedures as day 1 of the study.
(§6) On day five all subjects from all arms underwent just one swabbing per nostril with the exact same sampling procedure one time.
(§7) Application of H202: 3% OTC hydrogen peroxide was applied to a cotton pledget for application to the subject prior to irradiation. This was inserted in the nose for 120 seconds and then removed. The subjects were then given doses of phototherapeutic near infrared radiation as described. Application of generic topical Antimicrobial: The subjects were first given doses of phototherapeutic near infrared radiation as described. […] The swab was inserted approximately 1 cm in to the anterior nares and rotated 360 degrees several times and removed. Patients were instructed to perform the exact application procedure 3 times a day for the remaining 5 days.
(§8) The NOVEON™ laser was used for two (2) six-minute treatments in each nostril on day (1) and day (3) of the study.
(§9) The laser was calibrated before the first treatment of the day. Intermittent temperature testing of the treatment site was performed on each subject using a noncontact infrared thermometer (Raytek Minitemp), 30-60 second intervals.

MRSA in the nares = assay: Nasal colonization human study Part One, quantitative swab cultures, MRSA; assay type: in vivo, S. aureus; conditions: for MRSA Average: laser w/ drug arm, one line per patient; for reduction of bioburden: laser plus 2% erythromycin paste
Procedure: as §1, §2, §3, §4, §5, §6, §7, §8, §9

MRSA = assay: CFU counts of MRSA plated on agar with antibiotic after sub-lethal NIMELS laser (Examples IX-XII); assay type: cell-based, Staphylococcus aureus; conditions: for effect of sub-lethal NIMELS irradiation on antibiotic action against MRSA colonies (words): antibiotic at resistant MIC just below effectiveness level
Source text: The following parameters illustrate the general bacterial methods according to the invention as applied to MRSA for the in vitro Experiments V and VIII-XII.
The null hypothesis is μ1−μ2=0 and μ1−μ3=0 where:
a) μ1 is sub-lethal dosimetry from the NIMEL laser system on MRSA as a control and;
The null hypothesis is μ1−μ2=0 and μ1−μ3=0 where: • a) μ1 is sub-lethal dosimetry from the NIMEL laser system on MRSA as a control and; • b)μ2 is the same sub-lethal dosimetry from the NIMEL laser system on MRSA with the addition of tetracycline at resistant MIC just below effectiveness level and; • c) μ3 is the same sub-lethal dosimetry from the NIMEL laser system on MRSA with the addition of rifampin at resistant MIC just below effectiveness level.
The null hypothesis is μ1−μ2=0 and μ1−μ3=0 where: a) μ1 is sub-lethal dosimetry from the NIMEL laser system on MRSA as a control and; b)μ2 is the same sub-lethal dosimetry from the NIMEL laser system on MRSA with the addition of methicillin at resistant MIC just below effectiveness level and; […]

MSSA in the nares [2] = assay: Nasal colonization human study Part Two, laser plus topical erythromycin, MSSA; assay type: in vivo, S. aureus; conditions: one patient, baseline count >1000 CFU's; day 5 culture
Procedure: A second human study was conducted, to further evaluate the therapeutic potential of the NOVEON™ laser system, including its ability to reverse drug resistance in bacteria. The study was conducted in a similar manner as Part One, above. Outcome measures assessed included both laboratory study and clinical observations.
Positive anterior nares cultures were obtained in six patients (12 nostrils) having nasal colonization of MRSA or MSSA, before initiating bacterial photodamage through doses of phototherapeutic near infrared radiation. One patient had MRSA only, 3 had MSSA only, and 2 had both MRSA and MSSA.
The swab was inserted approximately 1 cm in to the anterior nares of the subject, rotated 360 degrees several times and removed.
The laser was calibrated before the first treatment of the day and between each patient. The NOVEON™ laser was used for four six-minute treatments of the nares at the following sets of dosimetries (Tables 59), which were evaluated for safety in previous studies. […] Temperatures of the nares were recorded every 30 seconds with an IR temperature thermometer.
Quantitative cultures from each nostril were obtained and plated in triplicate on chromogenic agar before and 20 minutes after exposure on day 1 and day 3. […]

[3] = Initial Analysis, Post-treatment swab, left nostril
[4] = Initial Analysis, Post-treatment swab, right nostril
[5] = Initial Analysis, Pre swab (baseline), left nostril, mean of triplicate plates
[6] = Initial Analysis, Pre swab (baseline), right nostril
[7] = Second Analysis, Post-treatment swab, left nostril
[8] = Second Analysis, Post-treatment swab, right nostril
[9] = Second Analysis, Pre swab, left nostril
[10] = Second Analysis, Pre swab, right nostril
[11] = Third Analysis, Swab, left nostril
[12] = Third Analysis, Swab, right nostril
[13] = patient 01-005, 2% erythromycin paste three times a day for five days

## CC[C@H]1OC(=O)[C@H](C)[C@@H](O[C@H]2C[C@@](C)(OC)[C@@H](O)[C@H](C)O2)[C@H](C)[C@@H](O[C@@H]2O[C@H](C)C[C@H](N(C)C)[C@H]2O)[C@](C)(O)C[C@@H](C)C(=O)[C@H](C)[C@@H](O)[C@]1(C)O [Erythromycin]
MSSA in the nares [1]; [3]
  s. aureus Average: 0 CFU (2×) and 188 CFU
MSSA in the nares [1]; [4]
  s. aureus Average: 0 CFU
MSSA in the nares [1]; [5]
  s. aureus Average: 0 CFU (2×) and 3045 CFU
MSSA in the nares [1]; [6]
  s. aureus Average: 0 CFU (2×) and 16 CFU
MSSA in the nares [1]; [7]
  s. aureus Average: 0 CFU
MSSA in the nares [1]; [8]
  s. aureus Average: 0 CFU
MSSA in the nares [1]; [9]
  s. aureus Average: 0 CFU (2×) and 71 CFU
MSSA in the nares [1]; [10]
  s. aureus Average: 0 CFU
MSSA in the nares [1]; [11]
  s. aureus Average: 0 CFU
MSSA in the nares [1]; [12]
  s. aureus Average: 0 CFU
MSSA in the nares [1]; [13]
  outcome on MSSA colonization, laser plus topical erythromycin: eradication in both nostrils
MRSA in the nares; [3]
  MRSA Average: 0 CFU (2×) and 166 CFU
MRSA in the nares; [4]
  MRSA Average: 0 CFU (2×) and 1 CFU
MRSA in the nares; [5]
  MRSA Average: 0 CFU (2×) and 3072 CFU
MRSA in the nares; [6]
  MRSA Average: 0 CFU (2×) and 8 CFU
MRSA in the nares; [7]
  MRSA Average: 0 CFU
MRSA in the nares; [8]
  MRSA Average: 0 CFU
MRSA in the nares; [9]
  MRSA Average: 0 CFU (2×) and 76 CFU
MRSA in the nares; [10]
  MRSA Average: 0 CFU
MRSA in the nares; [11]
  MRSA Average: 0 CFU
MRSA in the nares; [12]
  MRSA Average: 0 CFU
MRSA in the nares; patient 01-005, heavily colonized nostril
  reduction of bioburden: ≥ 3 log
MRSA in the nares; patient 01-005, moderately colonized nostril
  reduction of bioburden: ≥ 2 log
MRSA in the nares; [13]
  outcome on MRSA colonization, laser plus topical erythromycin: eradication in both nostrils
MRSA
  effect of sub-lethal NIMELS irradiation on antibiotic action against MRSA colonies (words): successful reversal of MRSA resistance
MRSA; listed as erythromycin
  effect of sub-lethal NIMELS irradiation on antibiotic action against MRSA colonies (words): resistance to erythromycin being reversed
MRSA; no laser, agar with erythro 4 ug/ml, replicates B-4 1 to 5
  MRSA colony count, CONTROL (no laser): 196 and 168 and 175 and 177 and 195
MRSA; sub-lethal NIMELS laser, agar with erythro 4 ug/ml, replicates B-4 1 to 5
  MRSA colony count, EXPERIMENTAL: 27 and 39 (2×) and 35 and 28
MSSA in the nares [2]
  reduction in MSSA: 3 log

— patent US20110295343A1, “NEAR-INFRARED ELECTROMAGNETIC MODIFICATION OF CELLULAR STEADY-STATE MEMBRANE POTENTIALS” (priority 2008, published 2011)
